This is an account of results in BindingDB's records for doi:10.1021/jm00037a025 (University of Oxford, 1994).

The term IC50 denotes the midpoint of a concentration-inhibition curve. A low value points to inhibition by little substance.

In the assay the target is D(2) dopamine receptor (Rattus norvegicus, UniProt P61169). Description: Displacement of spiperone from dopamine receptor D2 of rat brain membrane.
Chain of D(2) dopamine receptor (P61169 whole entry): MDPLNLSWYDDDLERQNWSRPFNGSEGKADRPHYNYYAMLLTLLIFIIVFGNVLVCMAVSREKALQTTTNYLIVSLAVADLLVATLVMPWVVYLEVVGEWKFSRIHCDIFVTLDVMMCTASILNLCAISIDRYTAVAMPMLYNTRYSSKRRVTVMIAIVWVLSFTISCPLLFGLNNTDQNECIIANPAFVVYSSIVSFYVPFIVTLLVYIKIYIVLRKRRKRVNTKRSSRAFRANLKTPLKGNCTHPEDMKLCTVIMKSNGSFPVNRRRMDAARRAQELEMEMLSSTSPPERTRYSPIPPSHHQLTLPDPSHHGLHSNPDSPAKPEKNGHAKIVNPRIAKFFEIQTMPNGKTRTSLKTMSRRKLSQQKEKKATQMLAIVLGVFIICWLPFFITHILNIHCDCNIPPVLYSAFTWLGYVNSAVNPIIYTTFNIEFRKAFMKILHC
With `CCCCN1CCC[C@H](c2cccc(O)c2)C1`, the half-maximal inhibitory concentration (IC50) was 430 nM.

For `CN1CCC[C@H](c2cccc(O)c2)C1`, the IC50 turned out to be 610 nM.

Take `CN1CCC[C@@H](c2cccc(O)c2)C1`: the IC50 was determined as 290 nM.

In turn, `CCc1ccc(N2CCC[C@@H](c3cccc(O)c3)C2)cc1` displayed a half-maximal inhibitory concentration (IC50) of 43.7 nM.

`CCc1ccc(N2CCC[C@H](c3cccc(O)c3)C2)cc1` registered an IC50 of 1230 nM.
